Among the data in patent US11820773B2, “Tricyclic compounds” (ALIGOS THERAPEUTICS, INC., priority 2020, dated 2023) are EC50 values, retold here.

This experiment has as its system HBV. Put plainly: HBV-DNA antiviral assay using HepG2.117 cells (intracellular HBV DNA by qPCR). It counts as cell-based, genotype D HBV. Conditions: HBV DNA inhibition, 3 days incubation, 2% DMSO. The method, boiled down:
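Endpoints are intracellular HBV DNA by qPCR (interpolated from a gBlock standard curve) and ATP-based viability in duplicate plates. Doxycycline-free HepG2.117 Tet-off cells received compounds (9 concentrations, 4-fold steps, 2% DMSO) for 3 days. Inhibition normalised to DMSO wells; EC50/EC90/CC50 by curve fitting.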

Consider `CNC(=O)c1ccc(-n2c(=O)c3c(n4ncc(CC5CC5)c24)CN(C(=O)c2ccc(Br)c(C(F)(F)F)c2)C(C)C3)cc1` (racemic) [Compound 21b, N-methyl-4-[rac-(11S)-12-[4-bromo-3-(trifluoromethyl)benzoyl]-5-(cyclopropylmethyl)-11-methyl-8-oxo-2,3,7,12-tetrazatricyclo[7.4.0.0^2,6]trideca-1(9),3,5-trien-7-yl]benzamide], for which the EC50 (commonly the midpoint of the concentration-response curve) was 50 to 500 nM. In turn, `CC(C)Cc1cnn2c3c(c(=O)n(-c4ccc(-c5nc(=O)on5C)cc4)c12)C[C@@H](C)N(C(=O)c1ccc(Br)c(C(F)(F)F)c1)C3` (stereo in doubt) [Compound 94a, 2-methyl-3-[4-[rac-(11R)-12-[4-bromo-3-(trifluoromethyl)benzoyl]-5-isobutyl-11-methyl-8-oxo-2,3,7,12-tetrazatricyclo[7.4.0.0^2,6]trideca-1(9),3,5-trien-7-yl]phenyl]-1,2,4-oxadiazol-5-one] registered a concentration for a half-maximal effect (EC50) (Hepatitis B virus, 72 h) of less than 50 nM. The compound `C[C@H]1Cc2c(n3ncc(CC4CC4)c3n(-c3ccc(-c4nncn4C)cc3)c2=O)CN1C(=O)c1ccc(Br)c(C(F)(F)F)c1` (stereo in doubt) [Compound 40b, rac-(11S)-12-[4-bromo-3-(trifluoromethyl)benzoyl]-5-(cyclopropylmethyl)-11-methyl-7-[4-(4-methyl-1,2,4-triazol-3-yl)phenyl]-2,3,7,12-tetrazatricyclo[7.4.0.0^2,6]trideca-1(9),3,5-trien-8-one] gave a half-maximal effective concentration (EC50) (Hepatitis B virus, 72 h) of 50 to 500 nM. Same read-out and setting: the figure for `Cc1nn[nH]c1-c1ccc(-n2c(=O)c3c(n4ncc(CC(C)C)c24)CN(C(=O)c2ccc(Cl)c(C(F)(F)F)c2)[C@H](C)C3)cc1` (stereo in doubt) [Compound 63a, rac-(11R)-12-[4-chloro-3-(trifluoromethyl)benzoyl]-5-isobutyl-11-methyl-7-[4-(4-methyl-1H-triazol-5-yl)phenyl]-2,3,7,12-tetrazatricyclo[7.4.0.0^2,6]trideca-1(9),3,5-trien-8-one] is less than 50 nM; for `CC(C)Cc1cnn2c3c(c(=O)n(-c4ccc5c(c4)nnn5C)c12)C[C@@H](C)N(C(=O)c1ccc(Br)c(C(F)(F)F)c1)C3` (stereo in doubt) [Compound 95a, rac-(11R)-12-[4-bromo-3-(trifluoromethyl)benzoyl]-5-isobutyl-11-methyl-7-(1-methylbenzotriazol-5-yl)-2,3,7,12-tetrazatricyclo[7.4.0.0^2,6]trideca-1(9),3,5-trien-8-one] it is less than 50 nM. In the case of `CC(C)Cc1cnn2c3c(c(=O)n(-c4ccc(-c5n[nH]c(=O)n5C)cc4)c12)C[C@@H](C)N(C(=O)c1ccc(Br)c(C(F)(F)F)c1)C3` (stereo in doubt) [Compound 81a, rac-(11R)-12-[4-bromo-3-(trifluoromethyl)benzoyl]-5-isobutyl-11-methyl-7-[4-(4-methyl-5-oxo-1H-1,2,4-triazol-3-yl)phenyl]-2,3,7,12-tetrazatricyclo[7.4.0.0^2,6]trideca-1(9),3,5-trien-8-one], the concentration giving a half-maximal response (EC50) (Hepatitis B virus, 72 h) was less than 50 nM. Same read-out and setting: then `CNC(=O)c1cnc(-n2c(=O)c3c(n4ncc(Cc5ccccc5)c24)CN(C(=O)c2ccc(Br)c(C(F)(F)F)c2)[C@@H](C)C3)cn1` (stereo in doubt) [Compound 73b, N-methyl-5-[rac-(11S)-5-benzyl-12-[4-bromo-3-(trifluoromethyl)benzoyl]-11-methyl-8-oxo-2,3,7,12-tetrazatricyclo[7.4.0.0^2,6]trideca-1(9),3,5-trien-7-yl]pyrazine-2-carboxamide], with less than 50 nM. Still for that read-out and setting: the figure for `CNC(=O)c1cnc(-n2c(=O)c3c(n4ncc(CC(C)C)c24)CN(C(=O)c2ccc(Br)c(C(F)(F)F)c2)[C@@H](C)C3)nc1` (stereo in doubt) [Compound 85b, N-methyl-2-[rac-(11S)-12-[4-bromo-3-(trifluoromethyl)benzoyl]-5-isobutyl-11-methyl-8-oxo-2,3,7,12-tetrazatricyclo[7.4.0.0^2,6]trideca-1(9),3,5-trien-7-yl]pyrimidine-5-carboxamide] is less than 50 nM; for `COP(=O)(O)OCN(C)C(=O)c1ccc(-n2c(=O)c3c(n4ncc(CC5CC5)c24)CN(C(=O)c2ccc(Br)c(C(F)(F)F)c2)[C@@H](C)C3)cc1` (racemic) [Compound 107, Methyl [methyl-[4-[rac-(11S)-12-[4-bromo-3-(trifluoromethyl)benzoyl]-5-(cyclopropylmethyl)-11-methyl-8-oxo-2,3,7,12-tetrazatricyclo[7.4.0.0^2,6]trideca-1(9),3,5-trien-7-yl]benzoyl]amino]methyl Hydrogen Phosphate] it is more than 5000 nM.

`CNC(=O)c1ccc(-n2c(=O)c3c(n4ncc(CC(C)C)c24)CN(C(=O)c2ccc(Cl)c(C(F)(F)F)c2)[C@@H](C)C3)cc1` (stereo in doubt) [Compound 54b, N-methyl-4-[rac-(11S)-12-[4-chloro-3-(trifluoromethyl)benzoyl]-5-isobutyl-11-methyl-8-oxo-2,3,7,12-tetrazatricyclo[7.4.0.0^2,6]trideca-1(9),3,5-trien-7-yl]benzamide] came in with a half-maximal effective concentration (EC50) (Hepatitis B virus, 72 h) of 50 to 500 nM. Under “Hepatitis B virus, 72 h”, `Cn1cncc1-c1ccc(-n2c(=O)c3c(n4ncc(Cc5ccccc5)c24)CN(C(=O)c2ccc(Br)c(C(F)(F)F)c2)CC3)cc1` [Compound 33, 5-benzyl-12-[4-bromo-3-(trifluoromethyl)benzoyl]-7-[4-(3-methylimidazol-4-yl)phenyl]-2,3,7,12-tetrazatricyclo[7.4.0.0^2,6]trideca-1(9),3,5-trien-8-one] came in with an EC50 of less than 50 nM. Regarding `CNC(=O)c1ccc(-n2c(=O)c3c(n4ncc(CC5CCCC5)c24)CN(C(=O)c2ccc(Br)c(Cl)c2)CC3)cc1` [Compound 11, 4-[12-(4-bromo-3-chloro-benzoyl)-5-(cyclopentylmethyl)-8-oxo-2,3,7,12-tetrazatricyclo[7.4.0.0^2,6]trideca-1(9),3,5-trien-7-yl]-N-methyl-benzamide], the EC50 is less than 50 nM. `Cc1nn[nH]c1-c1ccc(-n2c(=O)c3c(n4ncc(CC(C)C)c24)CN(C(=O)c2ccc(Br)c(C(F)(F)F)c2)[C@@H](C)C3)cc1` (stereo in doubt) [Compound 62b, rac-(11S)-12-[4-bromo-3-(trifluoromethyl)benzoyl]-5-isobutyl-11-methyl-7-[4-(4-methyl-1H-triazol-5-yl)phenyl]-2,3,7,12-tetrazatricyclo[7.4.0.0^2,6]trideca-1(9),3,5-trien-8-one] yielded an EC50 (Hepatitis B virus, 72 h) of 50 to 500 nM. Same read-out and setting: the figure for `C[C@H]1Cc2c(n3ncc(Cc4ccccc4)c3n(-c3ccc4c(c3)nnn4C)c2=O)CN1C(=O)c1ccc(Br)c(C(F)(F)F)c1` (stereo in doubt) [Compound 72b, rac-(11S)-5-benzyl-12-[4-bromo-3-(trifluoromethyl)benzoyl]-11-methyl-7-(1-methylbenzotriazol-5-yl)-2,3,7,12-tetrazatricyclo[7.4.0.0^2,6]trideca-1(9),3,5-trien-8-one] is less than 50 nM; for `Cc1nn[nH]c1-c1ccc(-n2c(=O)c3c(n4ncc(CC5CCC5)c24)CN(C(=O)c2ccc(Br)c(C(F)(F)F)c2)[C@@H](C)C3)cc1` (stereo in doubt) [Compound 76b, rac-(11S)-12-[4-bromo-3-(trifluoromethyl)benzoyl]-5-(cyclobutylmethyl)-11-methyl-7-[4-(4-methyl-1H-triazol-5-yl)phenyl]-2,3,7,12-tetrazatricyclo[7.4.0.0^2,6]trideca-1(9),3,5-trien-8-one] it is 50 to 500 nM. `CNc1nnc2cc(-n3c(=O)c4c(n5ncc(Cc6ccccc6)c35)CN(C(=O)c3ccc(Br)c(C(F)(F)F)c3)CC4)ccn12` [Compound 30, 5-benzyl-12-[4-bromo-3-(trifluoromethyl)benzoyl]-7-[3-(methylamino)-[1,2,4]triazolo[4,3-a]pyridin-7-yl]-2,3,7,12-tetrazatricyclo[7.4.0.0^2,6]trideca-1(9),3,5-trien-8-one]: the EC50 (Hepatitis B virus, 72 h) is less than 50 nM. The same measure, in the same setting: then `C[C@@H]1Cc2c(n3ncc(CC4CCC4)c3n(-c3ccc(-c4nncn4C)cc3)c2=O)CN1C(=O)c1ccc(Br)c(Cl)c1` (stereo in doubt) [Compound 48a, rac-(11R)-12-(4-bromo-3-chloro-benzoyl)-5-(cyclobutylmethyl)-11-methyl-7-[4-(4-methyl-1,2,4-triazol-3-yl)phenyl]-2,3,7,12-tetrazatricyclo[7.4.0.0^2,6]trideca-1(9),3,5-trien-8-one], with less than 50 nM; and `Cc1nnc(-c2ccc(-n3c(=O)c4c(n5ncc(Cc6ccccc6)c35)CN(C(=O)c3ccc(Br)c(Cl)c3)[C@@H](C)C4)cc2)[nH]1` (stereo in doubt) [Compound 53b, rac-(11S)-5-benzyl-12-(4-bromo-3-chloro-benzoyl)-11-methyl-7-[4-(5-methyl-4H-1,2,4-triazol-3-yl)phenyl]-2,37,12-tetrazatricyclo[7.4.0.0^2,6]trideca-1(9),3,5-trien-8-one], with 50 to 500 nM; and `CNC(=O)c1ccc(-n2c(=O)c3c(n4ncc(Cc5ccccc5)c24)CN(C(=O)c2ccc(Br)c(C)c2)CC3)cc1` [Compound 2, 4-[5-benzyl-12-(4-bromo-3-methyl-benzoyl)-8-oxo-2,3,7,12-tetrazatricyclo[7.4.0.0″2,6]trideca-1(9),3,5-trien-7-yl]-N-methyl-benzamide], with less than 50 nM. Same read-out and setting: the figure for `CNC(=O)c1cnc(-n2c(=O)c3c(n4ncc(Cc5ccccc5)c24)CN(C(=O)c2ccc(Br)c(C(F)(F)F)c2)[C@@H](C)C3)nc1` (stereo in doubt) [Compound 69b, N-methyl-2-[rac-(11S)-5-benzyl-12-[4-bromo-3-(trifluoromethyl)benzoyl]-11-methyl-8-oxo-2,3,7,12-tetrazatricyclo[7.4.0.0^2,6]trideca-1(9),3,5-trien-7-yl]pyrimidine-5-carboxamide] is less than 50 nM. `Cc1nn[nH]c1-c1ccc(-n2c(=O)c3c(n4ncc(CC(C)C)c24)CN(C(=O)c2ccc(Br)c(Cl)c2)[C@H](C)C3)cc1` (stereo in doubt) [Compound 64a, rac-(11R)-12-(4-bromo-3-chloro-benzoyl)-5-isobutyl-11-methyl-7-[4-(4-methyl-1H-triazol-5-yl)phenyl]-2,3,7,12-tetrazatricyclo[7.4.0.0^2,6]trideca-1(9),3,5-trien-8-one] came in with an EC50 (Hepatitis B virus, 72 h) of less than 50 nM.
